Test results published in ChEMBL document CHEMBL1135832, “Syntheses, calcium channel agonist-antagonist modulation activities, nitric oxide release, and voltage-clamp studies of 2-nitrooxyethyl 1,4-dihydro- 2,6-dimethyl-3-nitro-4-(2-trifluoromethylphenyl)pyridine-5-carboxylate enantiomers” (J Med Chem, 2002).

Assays:
Format in all cases: functional
[1] = species on record: Cavia porcellus; assay: In vitro NO ([…]) release by nitrite quanititation using Griess reaction
[2] = species on record: Cavia porcellus; assay: In vitro calcium channel modulating activity in guinea pig left atrium (GPLA); conditions: Cardiac atrium
[3] = species on record: Cavia porcellus; assay: In vitro NO ([…]) release by nitrite quanititation using Griess reaction in presence of N-acetyl-cysteamine
[4] = species on record: Cavia porcellus; assay: In vitro NO ([…]) release by nitrite quanititation using Griess reaction without N-acetyl-cysteamine

Structure (SMILES)	% of NO release [1]	IC50 [2] [µM]	% of NO release [3]	% of NO release [4]
CC1=NC(C)=C([N+](=O)[O-])[C@H](c2ccccc2C(F)(F)F)/C1=C(\O)OCCO[N+](=O)[O-]	2.7	16	–	–
O=[N+]([O-])OCC(CO[N+](=O)[O-])O[N+](=O)[O-] [NITROGLYCERIN]	–	–	5.3	0.18
CC1=NC(C)=C([N+](=O)[O-])[C@@H](c2ccccc2C(F)(F)F)/C1=C(\O)OCCO[N+](=O)[O-]	1.09	–	–	–
